Data as given in US20110229412A1, “ANIMAL MODEL OF CENTRAL NEUROPATHIC PAIN AND MEHTODS OF MAKING AND USING THE SAME” (priority 2008, published 2011).
“Also recorded” adds a separate entry of the source.

Test system: rats having DREZs avulsed at T13/L1
Assay: Allodynia (von Frey test) in rat T13/L1 DREZ avulsion model of central neuropathic pain
Format: in vivo
Method: Rats were anesthetized using isoflurane. Under aseptic condition, the skin was incised in the midline along the posterior thoracolumbar region. The paravertebral muscles were retracted laterally to expose the posterior aspect of the spinal laminae. Laminectomies were performed and the dura mater then incised along the midline to expose the dorsal rootlets of T13 and L1. The dorsal rootlets of T13 and L1 were then avulsed out of the spinal cord on the left side using micronstrumentation. Hemostasis was obtained and a layer of gelfoam placed over the dura. The wound was closed in layers. Perioperative antibiotics were administered in prophylaxis against infection. Subject rats were tested for allodynia of the hindpaws with the von Frey hair test, beginning day one post surgery and continuing daily over the subsequent four weeks. Rat animal model was generated similar to above. In one experiment, DREZ avulsion was unilateral (FIG. 2). In one experiment, DREZ avulsion was bilateral (FIG. 3). Ibudilast was delivered intrathecally daily in a corn oil carrier, with sham controls receiving only the corn oil. […] AV411 was administered to animals avulsed at the T13 and L1 dorsal root entry zones. The compound AV411 was administered to animals subject to the T13 and L1 hind paws. […] The reversal begins after 5-6 injections and continues to reverse behavior until day 33. The contralateral paw began to resolve at day 28 and the ipsilateral paw was still sensitive at day 33. […] Response thresholds on the von Frey test were recorded prior to and across a timecourse after avulsion surgery. Beginning on Day 12 post-surgery, rats (n=4/group) received once daily s.c. injections of either the glial activation inhibitor AV411/Ibudilast (Sigma; 5-mg/kg or 10-mg/kg) or equivolume vehicle (corn oil; 0.5-ml/kg). Daily drug treatment and intermittent behavioral testing continued through 33 days after surgery.

## CC(C)C(=O)c1c(C(C)C)nn2ccccc12 [AV411, 2-methyl-1-(2-propan-2-ylpyrazolo[1,5-a]pyridin-3-yl)propan-1-one]
Once daily s.c. 5-mg/kg or 10-mg/kg from Day 12 post-surgery
  onset of reversal of allodynia: 5-6 injections
Once daily s.c. 5-mg/kg or 10-mg/kg from Day 12 post-surgery through day 33
  effect on allodynia induced by unilateral T13/L1 dorsal root avulsion (von Frey test): reversed allodynia; also recorded: induces bilateral mechanical allodynia; also recorded: reverses bilateral allodynia
Once daily s.c. 5-mg/kg vs 10-mg/kg
  comparison of the 5 mg and 10 mg dose on allodynia: not differences between the 5 mg and 10 mg dose
Once daily s.c. from Day 12 post-surgery, days after surgery
  day until which reversal of behavior continues: ≤ 33 days
Unilateral (FIG. 2) or bilateral (FIG. 3) DREZ avulsion, delivered intrathecally daily in corn oil carrier
  effect on allodynia in the model: decreases allodynia
